The structures appear in SMILES notation. Calls of active or inactive are those of the source.

Assay [1] in a line: NIH-3T3 fibroblast cytotoxicity, dose response, cytotoxicity control, cell-based, fluorescence, Alamar Blue, secondary assay (AID 2327).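 Note: NIH-3T3 mouse fibroblasts cultured with fluconazole at 8 µg/mL.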 Type of assay: functional. For orientation: Resazurin is reduced to fluorescent resorufin, in cell work by metabolically active cells.
Another assay concerns the target T1, Protein RecA (Mycobacterium tuberculosis, UniProt P9WHJ3).
T1 sequence (P9WHJ3 whole entry): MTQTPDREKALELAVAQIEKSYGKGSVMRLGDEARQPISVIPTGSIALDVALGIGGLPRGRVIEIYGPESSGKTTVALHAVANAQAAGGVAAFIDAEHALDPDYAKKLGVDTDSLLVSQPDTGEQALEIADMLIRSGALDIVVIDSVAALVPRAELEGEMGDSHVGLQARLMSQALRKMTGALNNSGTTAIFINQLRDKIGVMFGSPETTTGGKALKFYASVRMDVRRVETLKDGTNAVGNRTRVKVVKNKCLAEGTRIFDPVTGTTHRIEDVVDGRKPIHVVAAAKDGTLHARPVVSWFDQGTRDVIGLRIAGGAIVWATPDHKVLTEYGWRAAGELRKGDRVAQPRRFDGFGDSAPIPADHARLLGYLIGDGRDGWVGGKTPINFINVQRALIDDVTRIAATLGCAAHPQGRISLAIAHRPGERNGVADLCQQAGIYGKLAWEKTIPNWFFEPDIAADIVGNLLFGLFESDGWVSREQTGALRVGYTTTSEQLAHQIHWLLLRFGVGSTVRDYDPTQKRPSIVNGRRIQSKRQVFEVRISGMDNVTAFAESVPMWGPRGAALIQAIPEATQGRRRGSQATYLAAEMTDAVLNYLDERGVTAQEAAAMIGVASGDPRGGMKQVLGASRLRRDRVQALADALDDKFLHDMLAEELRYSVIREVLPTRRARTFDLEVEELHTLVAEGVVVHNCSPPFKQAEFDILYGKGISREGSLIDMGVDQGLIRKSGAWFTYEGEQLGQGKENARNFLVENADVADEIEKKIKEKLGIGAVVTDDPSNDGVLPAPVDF
Put plainly: Fluorescence Cell-Free Homogeneous Dose Retest to Identify Inhibitors of RecA-Intein Splicing Activity. [Related pubchem assays (depositor defined):AID2097, AID2223, AID489010, AID492950]. Type of assay: functional.

The subject of a further assay is Streptococcus. Put plainly: Group A Streptococcus viability loss, dose response, counter-screen for streptokinase expression inhibitor project, luminescence, BacTiterGlo (AID 1915).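 Note: potency for reduction of bacterial viability or growth.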 It is filed as functional, organism-based. On the technique in general: A counterscreen serves to expose hits that act by an unwanted route or on another target.
Assay [2] is described as follows: inhibitors of firefly luciferase expression or activity, dose response, H4 neuroglioma cells, luminescence (AID 1990). It is filed as functional, cell-based.
Assay [3] can be described thus: inhibitors of SNCA 5'UTR-driven reporter translation, confirmation, H4 neuroglioma cells, luminescence (AID 1988). Type of assay: functional, cell-based.
Assay [4] addresses Serine/threonine-protein kinase pim-1 (Homo sapiens, UniProt P11309). It is filed as functional.
Assay [5] concerns the target Protein kinase C theta type (Homo sapiens, UniProt Q04759). Put plainly: Navigating the Kinome. Panel member name: PRKCQ. It is filed as functional.
For assay [6], the target named is Cyclin-dependent kinase 8 (Homo sapiens, UniProt P49336). The experiment in a line: Navigating the Kinome. Panel member name: CDK8. Type of assay: functional.
The next assay deals with Aurora kinase B (Homo sapiens, UniProt Q96GD4). Type of assay: functional.
In assay [7] the target is Glycogen synthase kinase-3 alpha (Homo sapiens, UniProt P49840). Type of assay: functional.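 Note: GSK3A result taken from a broad kinome-wide kinase panel.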
The target of assay [8] is Death-associated protein kinase 3 (Homo sapiens, UniProt O43293). It is filed as functional.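 Note: measured as one member of a kinome-wide profiling panel.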
Death-associated protein kinase 3, sequence (O43293 whole entry): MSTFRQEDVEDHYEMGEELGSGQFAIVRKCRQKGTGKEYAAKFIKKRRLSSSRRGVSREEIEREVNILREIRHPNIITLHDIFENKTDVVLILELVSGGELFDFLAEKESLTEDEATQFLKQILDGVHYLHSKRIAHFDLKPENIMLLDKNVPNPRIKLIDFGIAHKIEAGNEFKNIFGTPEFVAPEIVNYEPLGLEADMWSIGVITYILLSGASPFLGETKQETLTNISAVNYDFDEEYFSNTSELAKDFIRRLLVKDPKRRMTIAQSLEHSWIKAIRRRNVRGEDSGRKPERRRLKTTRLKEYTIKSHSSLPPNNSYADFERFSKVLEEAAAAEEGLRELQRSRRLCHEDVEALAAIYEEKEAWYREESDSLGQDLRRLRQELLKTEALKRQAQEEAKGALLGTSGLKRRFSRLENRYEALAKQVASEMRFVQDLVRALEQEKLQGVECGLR
For assay [9], the target named is ALK tyrosine kinase receptor (Homo sapiens, UniProt Q9UM73). It is filed as functional.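 Note: ALK tested as one member of a kinase panel screen.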
Assay [10] deals with Fibroblast growth factor receptor 1 (Homo sapiens, UniProt P11362). Type of assay: functional.
Fibroblast growth factor receptor 1, sequence (P11362 whole entry): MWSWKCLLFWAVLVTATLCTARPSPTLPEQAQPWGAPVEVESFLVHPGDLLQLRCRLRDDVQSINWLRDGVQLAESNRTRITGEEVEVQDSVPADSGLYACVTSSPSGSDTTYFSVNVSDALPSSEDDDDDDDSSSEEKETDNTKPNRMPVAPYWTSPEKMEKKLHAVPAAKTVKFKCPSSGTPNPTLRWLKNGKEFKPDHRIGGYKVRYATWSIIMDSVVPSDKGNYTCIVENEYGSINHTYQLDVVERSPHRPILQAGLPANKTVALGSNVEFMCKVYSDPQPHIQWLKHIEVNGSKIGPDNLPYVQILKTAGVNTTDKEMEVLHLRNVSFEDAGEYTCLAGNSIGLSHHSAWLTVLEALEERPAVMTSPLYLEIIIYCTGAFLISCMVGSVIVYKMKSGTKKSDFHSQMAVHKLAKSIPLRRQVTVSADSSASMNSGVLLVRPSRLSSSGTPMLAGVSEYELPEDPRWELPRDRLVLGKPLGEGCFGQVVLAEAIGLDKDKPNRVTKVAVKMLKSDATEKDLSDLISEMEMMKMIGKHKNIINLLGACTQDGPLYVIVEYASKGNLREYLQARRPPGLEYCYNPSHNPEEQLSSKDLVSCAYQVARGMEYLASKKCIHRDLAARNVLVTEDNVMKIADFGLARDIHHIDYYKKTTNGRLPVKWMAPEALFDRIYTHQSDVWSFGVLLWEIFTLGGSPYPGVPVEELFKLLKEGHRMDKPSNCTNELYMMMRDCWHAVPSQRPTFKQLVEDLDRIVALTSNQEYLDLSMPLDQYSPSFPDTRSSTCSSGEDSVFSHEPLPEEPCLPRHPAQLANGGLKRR
For assay [11], the target named is Macrophage-stimulating protein receptor (Homo sapiens, UniProt Q04912). The experiment in a line: Navigating the Kinome. Panel member name: MST1R. Type of assay: functional.
Assay [12] addresses Vascular endothelial growth factor receptor 1 (Homo sapiens, UniProt P17948). Type of assay: functional.
In assay [13] the target is 5'-AMP-activated protein kinase catalytic subunit alpha-1 (Homo sapiens, UniProt Q13131). Type of assay: functional.
For assay [14], the target named is Hepatocyte growth factor receptor (Homo sapiens, UniProt P08581). It is filed as functional.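 Note: kinase panel profiling across the kinome, with MET as the panel member.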
Hepatocyte growth factor receptor, sequence (P08581 whole entry): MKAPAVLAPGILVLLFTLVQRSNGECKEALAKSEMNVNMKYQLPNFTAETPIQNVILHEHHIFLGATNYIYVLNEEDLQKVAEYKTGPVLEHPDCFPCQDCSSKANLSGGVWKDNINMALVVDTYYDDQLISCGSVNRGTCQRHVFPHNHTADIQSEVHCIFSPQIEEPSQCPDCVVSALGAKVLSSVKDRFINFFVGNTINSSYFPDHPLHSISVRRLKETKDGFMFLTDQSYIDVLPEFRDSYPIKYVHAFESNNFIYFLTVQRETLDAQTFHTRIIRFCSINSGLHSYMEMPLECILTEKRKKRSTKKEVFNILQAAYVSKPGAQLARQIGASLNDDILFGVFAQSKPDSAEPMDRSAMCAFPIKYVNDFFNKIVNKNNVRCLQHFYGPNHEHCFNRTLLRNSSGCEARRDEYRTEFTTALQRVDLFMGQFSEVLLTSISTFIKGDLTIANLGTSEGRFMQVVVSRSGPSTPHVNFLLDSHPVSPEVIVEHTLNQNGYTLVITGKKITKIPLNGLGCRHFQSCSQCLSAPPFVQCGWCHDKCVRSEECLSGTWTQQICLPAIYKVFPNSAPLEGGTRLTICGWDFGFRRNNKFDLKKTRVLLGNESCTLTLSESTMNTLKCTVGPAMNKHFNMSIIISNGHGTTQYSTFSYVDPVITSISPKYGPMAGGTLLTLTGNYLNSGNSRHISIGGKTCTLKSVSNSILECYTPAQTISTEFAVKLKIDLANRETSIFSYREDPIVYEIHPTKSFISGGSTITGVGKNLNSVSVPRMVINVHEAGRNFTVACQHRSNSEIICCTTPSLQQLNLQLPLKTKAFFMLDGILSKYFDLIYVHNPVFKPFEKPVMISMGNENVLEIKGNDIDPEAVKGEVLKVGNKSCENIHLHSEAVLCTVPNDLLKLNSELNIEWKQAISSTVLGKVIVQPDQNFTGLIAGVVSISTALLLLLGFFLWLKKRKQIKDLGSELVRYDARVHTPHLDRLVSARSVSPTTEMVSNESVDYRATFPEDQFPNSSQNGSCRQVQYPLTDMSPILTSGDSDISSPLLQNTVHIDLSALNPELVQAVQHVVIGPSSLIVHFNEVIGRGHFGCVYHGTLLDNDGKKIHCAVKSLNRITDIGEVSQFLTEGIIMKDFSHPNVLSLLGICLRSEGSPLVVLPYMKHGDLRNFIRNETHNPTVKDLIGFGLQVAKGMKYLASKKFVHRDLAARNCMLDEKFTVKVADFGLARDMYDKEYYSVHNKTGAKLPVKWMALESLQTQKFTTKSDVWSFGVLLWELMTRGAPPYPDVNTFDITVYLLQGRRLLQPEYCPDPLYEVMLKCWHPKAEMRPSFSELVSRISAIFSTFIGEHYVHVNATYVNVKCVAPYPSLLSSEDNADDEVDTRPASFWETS
Assay [15] concerns the target Vascular endothelial growth factor receptor 2 (Homo sapiens, UniProt P35968). It is filed as functional.
In assay [16] the target is Cyclin-dependent kinase 5 (Homo sapiens, UniProt Q00535). It is filed as functional.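 Note: CDK5 measured as one member of a kinase profiling panel.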
Cyclin-dependent kinase 5, sequence (Q00535 whole entry, canonical isoform): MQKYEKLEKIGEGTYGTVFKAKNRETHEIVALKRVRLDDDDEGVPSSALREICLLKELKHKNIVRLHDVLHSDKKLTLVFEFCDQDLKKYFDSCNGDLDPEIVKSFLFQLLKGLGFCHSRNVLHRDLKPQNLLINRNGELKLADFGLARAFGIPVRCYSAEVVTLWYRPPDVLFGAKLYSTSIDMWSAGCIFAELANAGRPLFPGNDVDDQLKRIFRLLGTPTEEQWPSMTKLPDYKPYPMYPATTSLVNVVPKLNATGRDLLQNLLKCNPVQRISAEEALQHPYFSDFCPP
The target in assay [17] is Casein kinase I isoform alpha (Homo sapiens, UniProt P48729). It is filed as functional.
Casein kinase I isoform alpha, sequence (P48729 whole entry, canonical isoform): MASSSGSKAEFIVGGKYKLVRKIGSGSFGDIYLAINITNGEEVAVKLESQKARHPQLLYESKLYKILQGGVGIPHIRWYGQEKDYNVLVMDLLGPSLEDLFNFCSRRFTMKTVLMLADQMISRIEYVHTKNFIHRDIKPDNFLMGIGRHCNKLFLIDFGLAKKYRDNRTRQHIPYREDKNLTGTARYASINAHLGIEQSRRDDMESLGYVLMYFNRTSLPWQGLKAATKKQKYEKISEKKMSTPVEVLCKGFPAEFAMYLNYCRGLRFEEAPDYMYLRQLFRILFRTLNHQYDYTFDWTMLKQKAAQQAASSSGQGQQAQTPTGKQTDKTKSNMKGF
The target of assay [18] is Serine/threonine-protein kinase TBK1 (Homo sapiens, UniProt Q9UHD2). The experiment in a line: Navigating the Kinome. Panel member name: TBK1. Type of assay: functional.
The target of a further assay is T2, Caspase-3 (Homo sapiens, UniProt P42574).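 Note: Dose-response selectivity test against caspase-3 for candidate inhibitors of sentrin-specific proteases (SENPs).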
T2 sequence (P42574 whole entry): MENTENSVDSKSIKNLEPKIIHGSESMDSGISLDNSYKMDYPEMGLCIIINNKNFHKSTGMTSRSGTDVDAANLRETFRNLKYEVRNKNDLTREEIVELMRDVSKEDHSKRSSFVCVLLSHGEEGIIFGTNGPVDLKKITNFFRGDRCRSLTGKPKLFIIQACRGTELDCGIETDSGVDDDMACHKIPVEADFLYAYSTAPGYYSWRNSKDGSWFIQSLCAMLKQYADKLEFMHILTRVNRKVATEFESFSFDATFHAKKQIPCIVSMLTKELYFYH
Type of assay: functional.

The target of assay [19] is T3, Oxysterols receptor LXR-beta (Homo sapiens, UniProt P55055).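 Note: Cell-based luminescence dose-response assay of agonist activity at LXR, run as a confirmatory counterscreen to a daf-12 agonist screen; HEK293 cells with Gal4-LXR fusion and GAL4-driven luciferase reporter; agonist potency from rising luciferase signal of a Gal4-LXR reporter.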
T3 sequence (P55055 whole entry): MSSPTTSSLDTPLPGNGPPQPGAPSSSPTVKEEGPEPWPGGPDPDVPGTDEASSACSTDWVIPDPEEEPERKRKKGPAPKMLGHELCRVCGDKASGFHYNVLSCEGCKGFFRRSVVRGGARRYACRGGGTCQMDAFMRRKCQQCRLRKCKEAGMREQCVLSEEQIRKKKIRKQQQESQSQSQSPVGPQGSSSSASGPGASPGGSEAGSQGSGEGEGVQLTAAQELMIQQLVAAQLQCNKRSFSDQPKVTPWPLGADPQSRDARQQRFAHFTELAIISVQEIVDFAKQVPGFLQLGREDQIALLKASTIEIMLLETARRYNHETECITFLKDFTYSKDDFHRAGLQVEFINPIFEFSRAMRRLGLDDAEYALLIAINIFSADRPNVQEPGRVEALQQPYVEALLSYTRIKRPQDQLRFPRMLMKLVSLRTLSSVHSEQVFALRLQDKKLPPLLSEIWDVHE
It is filed as functional, cell-based.

Vascular endothelial growth factor receptor 2, sequence (P35968 whole entry): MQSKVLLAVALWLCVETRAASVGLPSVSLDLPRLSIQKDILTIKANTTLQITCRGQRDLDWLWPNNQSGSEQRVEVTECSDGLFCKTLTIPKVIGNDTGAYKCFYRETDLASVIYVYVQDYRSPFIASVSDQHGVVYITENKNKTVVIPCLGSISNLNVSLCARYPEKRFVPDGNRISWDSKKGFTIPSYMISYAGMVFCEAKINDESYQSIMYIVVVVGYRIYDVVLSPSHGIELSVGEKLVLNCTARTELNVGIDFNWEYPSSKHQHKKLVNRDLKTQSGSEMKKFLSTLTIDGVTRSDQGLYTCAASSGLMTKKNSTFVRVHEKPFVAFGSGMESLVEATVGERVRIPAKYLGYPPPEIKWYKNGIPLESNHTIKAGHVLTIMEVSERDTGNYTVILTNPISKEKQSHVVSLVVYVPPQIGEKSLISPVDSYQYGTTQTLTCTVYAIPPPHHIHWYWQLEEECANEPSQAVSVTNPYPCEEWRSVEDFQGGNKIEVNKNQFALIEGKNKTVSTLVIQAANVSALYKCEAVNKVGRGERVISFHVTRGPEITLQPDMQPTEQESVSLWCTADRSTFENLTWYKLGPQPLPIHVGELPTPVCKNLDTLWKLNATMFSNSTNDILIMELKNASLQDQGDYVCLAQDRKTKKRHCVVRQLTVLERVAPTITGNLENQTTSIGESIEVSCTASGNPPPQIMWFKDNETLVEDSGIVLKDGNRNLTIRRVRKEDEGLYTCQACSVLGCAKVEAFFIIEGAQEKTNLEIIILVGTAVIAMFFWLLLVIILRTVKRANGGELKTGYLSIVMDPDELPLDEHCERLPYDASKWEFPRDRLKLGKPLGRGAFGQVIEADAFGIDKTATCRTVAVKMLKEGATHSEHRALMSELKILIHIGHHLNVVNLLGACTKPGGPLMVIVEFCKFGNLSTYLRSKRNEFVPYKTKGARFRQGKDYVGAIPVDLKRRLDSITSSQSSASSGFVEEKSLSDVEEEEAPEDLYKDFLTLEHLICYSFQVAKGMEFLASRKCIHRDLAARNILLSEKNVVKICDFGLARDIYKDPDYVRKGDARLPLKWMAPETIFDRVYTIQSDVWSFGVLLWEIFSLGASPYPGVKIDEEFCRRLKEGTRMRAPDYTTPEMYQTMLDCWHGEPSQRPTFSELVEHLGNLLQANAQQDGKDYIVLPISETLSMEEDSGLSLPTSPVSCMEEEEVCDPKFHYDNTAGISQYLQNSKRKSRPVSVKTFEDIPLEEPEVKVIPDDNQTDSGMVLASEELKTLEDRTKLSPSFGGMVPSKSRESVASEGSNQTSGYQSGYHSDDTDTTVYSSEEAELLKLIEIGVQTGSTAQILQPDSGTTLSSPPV
Serine/threonine-protein kinase pim-1, sequence (P11309 whole entry): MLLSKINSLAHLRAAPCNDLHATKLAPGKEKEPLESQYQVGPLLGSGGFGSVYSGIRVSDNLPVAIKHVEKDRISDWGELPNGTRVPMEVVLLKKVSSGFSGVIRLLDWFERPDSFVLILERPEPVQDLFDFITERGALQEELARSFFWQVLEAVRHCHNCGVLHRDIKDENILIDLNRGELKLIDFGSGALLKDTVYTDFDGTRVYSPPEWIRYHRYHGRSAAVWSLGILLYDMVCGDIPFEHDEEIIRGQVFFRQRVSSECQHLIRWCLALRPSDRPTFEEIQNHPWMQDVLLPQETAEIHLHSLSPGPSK

Broadly, the EC50 is the concentration giving half of the maximal effect. `CN1CCN(C(c2ccc(C(F)(F)F)cc2)c2cc(Cl)c3cccnc3c2O)CC1` (stereo not drawn): the EC50 in [1] was 10.9 µM (inconclusive); on Protein RecA, 0.932 µM (active); in the assay with Streptococcus, 6.51 µM (active); in [2], 10.5 µM (active); in [3] it was 8.87 µM (active).
In general, Ki refers to a measure of affinity in units of concentration, obtained from inhibition or displacement. Regarding `O=C(NC(CCO)c1ccccc1)c1ccc(-c2ccncc2)cc1` (stereo not drawn), the Ki in [4] was > 6.31 µM (inactive); in assay [5] it was 1.58 µM (active); in [6], 2.51 µM (active); on Aurora kinase B, > 3.98 µM (inactive); in assay [7], 1.26 µM (active); in assay [8], > 5.01 µM (inactive). The Ki in assay [9] is > 6.31 µM (inactive); in [10] it was > 3.98 µM (inactive); in [11], > 3.98 µM (inactive); in assay [12] it was > 3.98 µM (inactive); in assay [13] it was > 3.16 µM (inactive); in [14], > 2.51 µM (inactive). For the same compound, the Ki in [15] is > 2.51 µM (inactive); in [16], > 3.16 µM (inactive); in assay [17], > 3.98 µM (inactive); in assay [18] it was > 3.16 µM (inactive).
By IC50 is commonly meant the concentration needed to halve the response being measured. With `NC(=O)c1c(NC(=O)c2cc3ccccc3o2)sc2c1CCC2`, the IC50 on Caspase-3 is 15.1 µM (active). In assay [19], the EC50 is > 67.5 µM (inactive).

Values taken from ChEMBL document CHEMBL1201862, “PubChem BioAssay data set” (2004).
